The numbers were not newly measured in paper PMC6256190 (Biomedical Reports, 2018), which cites them from elsewhere.

For this data set the following is noted: dry extract of ginger 100 mg to 2 g, 27 healthy American participants; glucuronides were detected.

Turning to `CCCCC[C@H](O)CC(=O)CCc1ccc(O)c(OC)c1` [6-gingerol], the “Free compound in plasma” value is reported as “no free”.
